Results on eleven molecules are retold here after paper PMC13289212, “HIVIL: A human in vitro inflammatory liver model recapitulates immune-associated drug effects with high predictivity” (NAM journal, 2025).

Where two headings read alike, the source gives them in different places.

The conditions of data set [1]: FDA-labeling information; ref Chen et al. 2016; cited from earlier work.
For data set [2] the following is noted: ref Ho et al. 2015; Kaplowitz 2005; Verma and Kaplowitz 2009; cited from earlier work.
For data set [3], the system named is IL-6. Nature of the data set: IL-6 ELISA in HIVIL (iKCs co-cultured with iHeps, LPS, 48 hr). It is filed as cell-based, human. The note with it: HIVIL; for IC50: Homo sapiens, LPS, 48 hr. The source says:
(§1) Human iPSC cell line iPS (IMR90)-4 was purchased from WiCell Research Institute (Madison, WI), and maintained with a feeder-free method according to the instruction from […] Technologies (Vancouver, BC, Canada). The protocol of differentiation towards iKCs and iHeps as described previously with slight modification ([Tasnim et al., 2019]; [Cai et al., 2012]), respectively. […] More details are provided in Supplementary Methods. After differentiation, iKCs was harvested using 0.05 % trypsin-EDTA (Gibco, Waltham, Massachusetts, USA), while iHeps were dissociated with TrypLE^TM (Gibco). iHep suspension was further filtered through a 40 µm cell strainer to remove extracellular matrix clumps. Cell suspension was centrifuged at 1000 rpm for 5 min. For co-culture set up, tissue culture plates were coated with Rat tail collagen I (Gibco) diluted 100-fold in 0.02 N acetic acid, and incubated at 37 °C for 1 h and washed 3 times with PBS. According to the protocol optimized by [Tasnim et al. (2019)], iKCs was firstly seeded at a density of 14,000 per well on 96-well plate with Advanced DMEM (plus supplements) containing 5 % FBS. On the following day, iHeps were added at a density of 35,000 per well in Williams’ Medium E (plus supplements) (iHep: iKCs ratio = 2.5: 1). This reflects the physiological ratio of these cells in vivo under inflammatory conditions ([Tasnim et al., 2021]). Fresh media containing drugs was applied to co-cultures the next day. 50,000 cells were seeded to establish iHeps monoculture. THP-1 cells were kindly obtained from Dr. Eliza Fong and cultured as described by [Zeng et al. (2015)]. Details provided in Supplementary Methods.
(§2) Stock solutions of drugs were prepared in dimethyl sulfoxide (DMSO) and dissolved in medium prior to use. […] For these two drugs, the highest DMSO concentration was 1 %. Supernatant was collected at 48 hr for measurement of cytokines, and remaining cells were subjected to viability assay prior to lysis for RNA extraction.
(§3) Enzyme-linked immunosorbent assay (ELISA) for measurement of cytokines: Interleukin-6 (IL-6), interleukin-10 (IL-10) and tumor necrosis factor alpha (TNFα) levels in the media were measured using the corresponding human-based ELISA kits (Abcam, Cambridge, United Kingdom) according to manufacturer’s instructions. The cytokine production from dosed cells was normalized with the viability value from the same well. The normalized cytokine level upon drug treatments was further presented as percentage of DMSO+LPS. […] This normalization approach has been used in previous studies (Rose et al. 2016).
(In general: In an ELISA, binding on a coated surface is turned into a signal by an enzyme label.)

The conditions of data set [4]: binary classification by human hepatotoxicity; ref Thakkar et al. 2020; cited from earlier work.
In data set [5] the test system is IL-6. The arrangement: method as in Steuerwald et al. 2013; Mahdy et al. 2002; Kang et al. 2001. The note with it: ref Steuerwald et al. 2013; Mahdy et al. 2002; Kang et al. 2001; cited from earlier work.
For data set [6], the system named is IL-6. As to the kind of experiment: IL-6 response in HIVIL using THP-1 macrophages co-cultured with iHeps. The note with it: HIVIL with THP-1 instead of iKCs, result in words. It is filed as cell-based, human. From the text:
Human iPSC cell line iPS (IMR90)-4 was purchased from WiCell Research Institute (Madison, WI), and maintained with a feeder-free method according to the instruction from […] Technologies (Vancouver, BC, Canada). The protocol of differentiation towards iKCs and iHeps as described previously with slight modification ([Tasnim et al., 2019]; [Cai et al., 2012]), respectively. The re-optimized protocol to generate iKCs is discussed in Results section. More details are provided in Supplementary Methods. After differentiation, iKCs was harvested using 0.05 % trypsin-EDTA (Gibco, Waltham, Massachusetts, USA), while iHeps were dissociated with TrypLE^TM (Gibco). iHep suspension was further filtered through a 40 µm cell strainer to remove extracellular matrix clumps. Cell suspension was centrifuged at 1000 rpm for 5 min. For co-culture set up, tissue culture plates were coated with Rat tail collagen I (Gibco) diluted 100-fold in 0.02 N acetic acid, and incubated at 37 °C for 1 h and washed 3 times with PBS. According to the protocol optimized by [Tasnim et al. (2019)], iKCs was firstly seeded at a density of 14,000 per well on 96-well plate with Advanced DMEM (plus supplements) containing 5 % FBS. On the following day, iHeps were added at a density of 35,000 per well in Williams’ Medium E (plus supplements) (iHep: iKCs ratio = 2.5: 1). This reflects the physiological ratio of these cells in vivo under inflammatory conditions ([Tasnim et al., 2021]). Fresh media containing drugs was applied to co-cultures the next day. 50,000 cells were seeded to establish iHeps monoculture. THP-1 cells were kindly obtained from Dr. Eliza Fong and cultured as described by [Zeng et al. (2015)]. Details provided in Supplementary Methods.
THP-1 maintenance and differentiation: THP-1 monocytic lineage was maintained in RPMI 1640 with 10% FBS. For differentiation to macrophages, suspension cells were collected and subjected to 2-day phorbol 12-myristate 13-acetate (PMA) treatment (50 ng/ml), followed by a 1-day PMA-free medium resting. THP-1 macrophages were trypsinzed and used for co-culture as described in Material and methods.
Enzyme-linked immunosorbent assay (ELISA) for measurement of cytokines: Interleukin-6 (IL-6), interleukin-10 (IL-10) and tumor necrosis factor alpha (TNFα) levels in the media were measured using the corresponding human-based ELISA kits (Abcam, Cambridge, United Kingdom) according to manufacturer’s instructions. The cytokine production from dosed cells was normalized with the viability value from the same well. The normalized cytokine level upon drug treatments was further presented as percentage of DMSO+LPS. Normalization to viability per well ensures that any changes in cytokines are not due to changes in cell numbers upon drug treatment and normalization to DMSO+LPS allows better comparison between different batches of experiments. This normalization approach has been used in previous studies (Rose et al. 2016).

For data set [7] the following is noted: Cammett et al. 2009, Mendes et al. 2014, cited from earlier work.
For data set [8], the system named is TNFα. The note with it: ref Shaw et al. 2010; Zou et al. 2009; Bekker et al. 2012; Gandhi et al. 2013; Heidari et al. 2019; cited from earlier work.
The test system of data set [9] is TNFα. Nature of the data set: TNFα ELISA in HIVIL (iKCs co-cultured with iHeps, LPS, 48 hr). The data set is classed as cell-based, human. Particulars: result in words.
Source text: as §1, §2, §3

In data set [10] the test system is HIVIL (iKCs co-cultured with iHeps). As to the kind of experiment: AlamarBlue cell viability in HIVIL. The note with it: Homo sapiens, 48 h, read-out: IC50: viability. The procedure: as §2
(Resazurin is reduced to fluorescent resorufin, in cell work by metabolically active cells.)

The test system of data set [11] is IL-6. The note with it: 858.6 μM, 1 μg/mL of LPS; ref Li et al. 2020; cited from earlier work.
Data set [12] deals with IL-6. Also on record: method as in ref Hassan et al. 2016; Giustarini et al. 2019; Higuchi et al. 2012; Dik et al. 2018. The note with it: ref Hassan et al. 2016; Giustarini et al. 2019; Higuchi et al. 2012; Dik et al. 2018; cited from earlier work.
In data set [13] the test system is IL-6. As to the kind of experiment: Optimization of stimulator and duration: IL-6 production. It is filed as cell-based, human. From the text:
In order to evaluate the time-dependent inflammatory responses, we measured interleukin-6 (IL-6) production within 48 hr post-LPS treatment.

[14] abbreviates: ref in each cell: Ademisoye et al. 2018, Xu et al. 2008, Agabeyoglu and Incecayir 2009, Rojanasthien et al. 2007, Reunanen et al. 1992, Li et al. 2002, Hong-mei et al. 2013, Bareggi et al. 1987, Jiang et al. 2008.

Regarding penicillin, the DILIrank result in [1] is “less”. For the same molecule, the Known immune-mediated effects entry in [2] was “×”. For the same molecule, the “group by drug-dependent IL-6 production” value in [3] is recorded as “no dose-dependent changes”. For the same molecule, in data set [4], the DILIst was 1.
For the molecule `O=C1NC(=O)C(c2ccccc2)(c2ccccc2)N1` [PHT, phenytoin], in data set [1], the DILIrank result was “most”. The “Reported human responses: IL-6” value in data set [5] was “IL-6↑ (Steuerwald et al. 2013)”. Besides, in [6], the “drug-specific IL-6 response with THP-1 macrophages” value (shortened to “drug-specific IL-6 response”) is recorded as “failed to replicate IL-6 increases”. Also, the Cmax (usually the highest concentration seen after dosing) in [7] (setting [14]) is 15.4 µM. Further, the “dose-dependent increase in IL-6 levels over baseline” value in data set [3] was 1.5- to 2 fold. The DILIst in data set [4] was 1.
For `Cc1ccnc2c1NC(=O)c1cccnc1N2C1CC1` [NVP, nevirapine], the DILIrank result in data set [1] was “most”. Moreover, the “Reported in-vivo (murine) responses: TNFα” value in data set [8] was “TNFα↑ (Bekker et al. 2012)”. Moreover, the TNFα induction entry in [9] is “all concentrations”. Moreover, the IC50 (in general, the concentration that gives 50% inhibition) in [10] turned out to be 2610 µM. In data set [3], the “group by drug-dependent IL-6 production” value is “dose-dependent inhibition” and the IC50 is 1070 µM. Also, in [4], the DILIst was 1.
As for `NNC(=O)c1ccncc1` [INH, isoniazid], the DILIrank result in [1] is recorded as “most”. For the same molecule, in [5], the “Reported human responses: IL-6” value is listed as “IL-6↑ (Steuerwald et al. 2013)”. For the same molecule, in data set [6], the “drug-specific IL-6 response” value is recorded as “failed to replicate IL-6 increases”. Also, in data set [3] (all doses tested), the IL-6 induction result is reported as “at least 1.2 fold”. For the same molecule, the “changes in IL-6 levels” value in [11] is “did not show any changes”. The DILIst in data set [4] is given as 1. Besides, the “Reported in-vivo (murine) responses: IL-6” value in data set [12] was “IL-6↑ (Hassan et al. 2016)”.
In the case of lipopolysaccharide [LPS], the “IL-6 production compared to vehicle control” value in data set [13] (24 hr post-LPS treatment) amounted to 10.15 fold; in data set [13] (48 hr post-LPS treatment), 4.70 fold.
For the molecule `CCCc1cc(=O)[nH]c(=S)[nH]1` [PTU, propylthiouracil], in data set [1], the DILIrank entry is recorded as “most”. Also, in data set [8], the “Reported in-vivo (murine) responses: TNFα” value is “TNFα↑ (Heidari et al. 2019)”. The TNFα induction entry in data set [9] is on record as “all concentrations”. Also, in [7] (setting [14]), the Cmax was 17.6 µM. Moreover, in [7] (ref in each cell: Xu et al. 2008), the Cmax was 17.6 µM. In addition, in [3], the “group by drug-dependent IL-6 production” value is recorded as “dose-dependent inhibition” and the half-inhibitory concentration (IC50) was found to be 259 µM. Further, the DILIst in [4] is recorded as 1.
Consider `NC(=O)N1c2ccccc2C=Cc2ccccc21` [CBZ, carbamazepine], for which the DILIrank entry in [1] is on record as “most”. The Cmax in [7] (setting [14]) is 25.3 µM. In data set [3], the “group by drug-dependent IL-6 production” value is on record as “dose-dependent induction” and the “increase in IL-6” value came out at 1.7 fold. Besides, in data set [4], the DILIst is recorded as 1. Moreover, the “Reported in-vivo (murine) responses: IL-6” value in [12] is “IL-6↑(Higuchi et al. 2012)”.
In the case of `Nc1nnc(-c2cccc(Cl)c2Cl)c(N)n1` [LTG, lamotrigine], the DILIrank entry in data set [1] is “most”. Moreover, in data set [5], the “Reported human responses: IL-6” value is listed as “IL-6↑(Steuerwald et al. 2013)”. The “drug-specific IL-6 response” value in data set [6] is given as “failed to replicate IL-6 increases”. In addition, the Cmax in [7] (setting [14]) is 9.8 µM. In [3], the “dose-dependent increase in IL-6 levels over baseline” value is listed as 1.5- to 2 fold. In data set [4], the DILIst is 1.
On to `CCN(CC)Cc1cc(Nc2ccnc3cc(Cl)ccc23)ccc1O` [AQ, amodiaquine], for which the “Reported human responses: IL-6” value in data set [5] was “IL-6↑ (Steuerwald et al. 2013)”. For the same molecule, the “drug-specific IL-6 response” value in [6] is “failed to replicate IL-6 increases”. Also, in [7] (setting [14]), the Cmax was 0.1 µM. This molecule also had an IL-6 induction in data set [3] (10 μM) of 1.47 fold. The DILIst in data set [4] is given as 1.
As to `CN(C/C=C/C#CC(C)(C)C)Cc1cccc2ccccc12` [TBF, terbinafine], the DILIrank entry in data set [1] is given as “most”. Moreover, in data set [2], the Known immune-mediated effects entry is on record as “×”. The Cmax in [7] (setting [14]) was 3.4 µM. Besides, in [3], the “group by drug-dependent IL-6 production” value is on record as “no dose-dependent changes”. In addition, the DILIst in data set [4] is given as 1.
As to `NC(=O)c1cnccn1` [PZA, pyrazinamide], the DILIrank entry in [1] is reported as “less”. The Known immune-mediated effects entry in data set [2] is given as “×”. The Cmax in data set [7] (setting [14]) is 407 µM. Also, the “group by drug-dependent IL-6 production” value in data set [3] is given as “no dose-dependent changes”. Further, in [4], the DILIst is reported as 1.
